Measurements taken from patent publication US6875851B1 (priority 1999, dated 2005).
Where “and” joins values, the source holds several entries; their conditions need not be identical. Equal entries are not always repeated. Entries after “also recorded” stand apart in the source; their conditions may differ. Where two headings read alike, the source gives them in different places. Where no end group is shown, it is not given here. [ ]: non-standard residue; d: D form. The star is where a group is joined. pNA = O=[N+]([O-])c1ccc(N*)cc1; Cbz = O=C(OCc1ccccc1)*

Columns and labels:
DPP IV [1] = type: biochemical, P. gingivalis; details: pH 7.6
PTP-A [2] = type: biochemical, P. gingivalis; details: for Residual activity of PTP-A, %: pH 7.6
PTP-A [3] = type: biochemical, P. gingivalis; details: 1 mM substrate, 0.2 M HEPES, pH 7.5 at 37° C.
Target sequence in this assay (Q7MUW6 81-732 limits assumed): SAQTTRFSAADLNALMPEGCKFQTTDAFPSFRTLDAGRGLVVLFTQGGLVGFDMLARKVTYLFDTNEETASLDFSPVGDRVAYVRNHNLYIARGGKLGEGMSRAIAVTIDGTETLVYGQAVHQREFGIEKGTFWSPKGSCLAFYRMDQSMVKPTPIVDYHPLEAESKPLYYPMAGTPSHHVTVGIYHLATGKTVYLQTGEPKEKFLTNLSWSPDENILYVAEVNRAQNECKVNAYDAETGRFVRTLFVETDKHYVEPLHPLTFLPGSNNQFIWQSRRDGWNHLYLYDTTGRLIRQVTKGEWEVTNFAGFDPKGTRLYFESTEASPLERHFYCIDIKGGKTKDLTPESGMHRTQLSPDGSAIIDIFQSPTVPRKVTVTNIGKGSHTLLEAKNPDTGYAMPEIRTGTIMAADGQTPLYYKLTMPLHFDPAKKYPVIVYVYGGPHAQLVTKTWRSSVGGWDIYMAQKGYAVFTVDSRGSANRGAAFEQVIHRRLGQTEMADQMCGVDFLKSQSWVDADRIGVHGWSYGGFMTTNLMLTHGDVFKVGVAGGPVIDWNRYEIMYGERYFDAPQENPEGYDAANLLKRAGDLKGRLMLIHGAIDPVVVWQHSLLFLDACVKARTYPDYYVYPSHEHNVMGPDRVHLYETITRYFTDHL

P. gingivalis = type: cell-based; details: for P. gingivalis growth (OD600): 37° C.
DPP IV [4] = test: Cleavage specificity of DPP IV on synthetic peptides; type: biochemical, P. gingivalis; details: for Cleavage site mediated by DPP IV: same conditions as those used for PTP-A
Experimental: Enzyme Specificity—Peptides were incubated with 1 μg PTP-A at an enzyme:substrate molar ratio of 1:100 for 3 hours or 24 hours in 50 μl of 200 mM HEPES, pH 7.5, at 37° C., and the reaction stopped by acidification with trifluoroacetic acid. The samples were then subjected to reverse-phase high pressure liquid chromatography using a μBondapak C-18 column (3.9×300 mm) (Waters, Millford, Mass.) and an acetonitrile gradient (0-80% in 0.075% trifluoroacetic acid in 50 min). Each peak, detected at 220 nm, was collected, lyophilized, redissolved in 50% (volume/volume) methanol, 0.1% acetic acid and subjected to analysis by mass spectrometry.
Mass Spectrometry—A Finnigan MAT 95S, sector mass spectrometer (Finnigan MAT, Bremen, Germany) equipped with an electrospray source (ESI) was used operated essentially as described previously (Stenfors, C., et al., (1997) J. Biol. Chem. 272, 5747-5751). Peptides were identified by fitting of the obtained spectra to specific sequences using an Internet application program MsFit available at http://falcon.ludwig.ucl.ac.uk/msfit.html.

PTP-A [5] = type: biochemical, P. gingivalis; details: enzyme:substrate 1:100, 3 hours or 24 hours, 200 mM HEPES, pH 7.5, 37° C.; for Cleavage site mediated by PTP-A: 1 μg PTP-A
PTP-A [6] = type: biochemical, P. gingivalis

c1cnc2c(c1)ccc1cccnc12 [1,10-orthophenanthroline]
Residual activity of DPP IV, % (DPP IV [1]): 100% | Residual activity of PTP-A, % (PTP-A [2]): 93% and 100%

H-Ala-Phe-Pro-pNA
Hydrolysis of chromogenic substrate by PTP-A (PTP-A [3]): hydrolyzed

O=c1oc(Cl)c(Cl)c2ccccc12 [3,4-dichloroisocoumarin]
Growth of P. gingivalis (P. gingivalis): inhibits growth | Residual activity of DPP IV, % (DPP IV [1]): 100% | Effect on PTP-A amidolytic activity (in words) (PTP-A [2]): only a poor inhibitor | Residual activity of PTP-A, % (PTP-A [2]): 200%

NH2-SAQTTRFSAADLNALMP (H-SAQTTRFSAADLNALMP; listed as Porphyromonas gingivalis) [SEQ ID NO:23]
Cleavage by DPP IV (in words) (DPP IV [4]): found to cleave

NC(=O)CI [Iodoacetamide]
Residual activity of DPP IV, % (DPP IV [1]): 100% | Effect on PTP-A amidolytic activity (in words) (PTP-A [2]): stimulated enzyme amidolytic activity about two-fold | Residual activity of PTP-A, % (PTP-A [2]): 100%

H-Pro-pNA
Hydrolysis of chromogenic substrate by PTP-A (PTP-A [3]): only H-Ala-Phe-Pro-pNA was hydrolyzed

H-YRPPGFSPFR [Peptide 4]
Cleavage of peptide by PTP-A (in words) (PTP-A [5]): significant exception

H-Arg-His-Pro-↓-Lys-Tyr-Lys-Thr-Glu-Leu (RHPKYKTEL) [Peptide 14]
Cleavage site mediated by PTP-A (PTP-A [5]): H-Arg-His-Pro-↓-Lys-Tyr-Lys-Thr-Glu-Leu

H-Lys-Arg-Pro-Pro-Gly-Phe-Ser-Pro-Phe-Arg (KRPPGFSPFR; printed: Lys-Arg-Pro-Pro-Gly-Phe-Ser-Pro-Phe-Arg) [Peptide 3]
Cleavage of peptide by PTP-A (in words) (PTP-A [5]): significant exception

H-Val-Glu-Pro-↓-Ile-Pro-Tyr (VEPIPY) [Peptide 10]
Cleavage site mediated by PTP-A (PTP-A [5]): H-Val-Glu-Pro-↓-Ile-Pro-Tyr

O=S(=O)(F)Cc1ccccc1 [Phenylmethanesulfonyl fluoride]
Effect on PTP-A amidolytic activity (in words) (PTP-A [2]): no effect at all

H-Arg-Pro-↑-Lys-Pro-↑-Gln-Gln-Phe-Phe-Gly-Leu-Met-NH2 (H-RPKPQQFFGLM-NH2) [Peptide 6]
Cleavage by DPP IV (in words) (DPP IV [4]): found to cleave | Cleavage site mediated by DPP IV (DPP IV [4]): Pro-↑-Lys; also recorded: Pro-↑-Gln

Cl.NCCc1ccc(S(=O)(=O)F)cc1 [PEFABLOC SC, 4-(2-aminoethyl)-benzenesulfonyl-fluoride hydrochloride]
P. gingivalis growth (OD600) (P. gingivalis; Pefabloc added at 0.5 mg/ml when the optical density began to increase): decreased growth | P. gingivalis growth (OD600) (P. gingivalis; Pefabloc added at 2.0 mg/ml when the optical density began to increase): decreased growth | Growth of P. gingivalis (P. gingivalis; treatment of cultures in lagphase and early logarithmic growth): inhibits growth | Residual activity of DPP IV, % (DPP IV [1]): 100% | Effect on PTP-A amidolytic activity (in words) (PTP-A [2]): total loss of activity | Residual activity of PTP-A, % (PTP-A [2]): 56%

albumin
Cleavage of protein by PTP-A (in words) (PTP-A [6]): absence of any proteolytic activity

Ac-Val-Pro-Pro-Gly-Glu-Asp-Ser-Lys (Ac-VPPGEDSK) [Peptide 9]
Cleavage of peptide by PTP-A (in words) (PTP-A [5]): resistance to enzymatic hydrolysis

gelatin
Cleavage of protein by PTP-A (in words) (PTP-A [6]): absence of any proteolytic activity

IGVHGWXYGGFMTINL [SEQ ID NO:24]
Cleavage by DPP IV (in words) (DPP IV [4]): found to cleave

H-Ala-Pro-↑-Val-Arg-Ser-Leu-Asn-Cys-Thr-Leu-Arg-Asp-Ser-Gln-Gln-Lys (APVRSLNCTLRDSQQK) [Peptide 24]
Cleavage site mediated by DPP IV (DPP IV [4]): H-Ala-Pro-↑-Val-Arg-Ser-Leu-Asn-Cys-

H-Arg-Gly-Pro-↓-Phe-Pro-Ile (RGPFPI) [Peptide 11]
Cleavage site mediated by PTP-A (PTP-A [5]): H-Arg-Gly-Pro-↓-Phe-Pro-Ile

H-Ser-Pro-↑-Tyr-Ser-Ser-Asp-Thr-Thr (SPYSSDTT) [Peptide 23]
Cleavage site mediated by DPP IV (DPP IV [4]): H-Ser-Pro-↑-Tyr-Ser-Ser-Asp-Thr-Thr

H-Val-Pro-Pro-↓-Gly-Glu-Asp-Ser-Lys-Glu-Val-Ala-Ala-Pro-His-Arg-Gln (VPPGEDSKEVAAPHRQ) [Peptide 7]
Cleavage site mediated by PTP-A (PTP-A [5]): H-Val-Pro-Pro-↓-Gly-Glu-Asp-Ser-Lys-Glu-

H-Arg-Pro-Pro-↓-Gly-Phe-Ser-Pro-Phe-Arg (RPPGFSPFR) [Peptide 1]
Cleavage site mediated by PTP-A (PTP-A [5]): H-Arg-Pro-Pro-↓-Gly-Phe-Ser-Pro-Phe-Arg

H-Pro-Asn-Pro-↓-Asn-Gln-Gly-Asn-Phe-Ile (PNPNQGNFI) [Peptide 13]
Cleavage site mediated by PTP-A (PTP-A [5]): H-Pro-Asn-Pro-↓-Asn-Gln-Gly-Asn-Phe-Ile

Cbz-Ala-Pro-pNA
Hydrolysis of chromogenic substrate by PTP-A (PTP-A [3]): only H-Ala-Phe-Pro-pNA was hydrolyzed

CC(=O)N[C@@H](CC(C)C)C(=O)N[C@@H](CC(C)C)C(=O)N[C@H](C=O)CCCNC(=N)N [Leupeptin]
Residual activity of DPP IV, % (DPP IV [1]): 20% | Effect on PTP-A amidolytic activity (in words) (PTP-A [2]): no effect at all | Residual activity of PTP-A, % (PTP-A [2]): 100%

H-Val-Pro-Pro-↓-Gly-Glu-Asp-Ser-Lys (VPPGEDSK) [Peptide 8]
Cleavage site mediated by PTP-A (PTP-A [5]): H-Val-Pro-Pro-↓-Gly-Glu-Asp-Ser-Lys

interleukin 6: protein substrate
Cleavage of protein by PTP-A (in words) (PTP-A [6]): able to cleave a tripeptide

α1-proteinase inhibitor: Human plasma inhibitor
Effect on PTP-A amidolytic activity (in words) (PTP-A [2]): did not affect the enzyme activity | Cleavage of protein by PTP-A (in words) (PTP-A [6]): nor were they cleaved by PTP-A

O=C(O)CN(CCN(CC(=O)O)CC(=O)O)CC(=O)O [EDTA]
Residual activity of DPP IV, % (DPP IV [1]): 100% | Residual activity of PTP-A, % (PTP-A [2]): 100%

H-Leu-Pro-↑-Asp-Leu-Asp-Ser-Ser-Leu-Ala-Ser-Ile-Gln-Glu-Leu-Leu-Ser-Pro-Gln-Glu-Pro-Pro-Arg-Pro-Pro-Glu-Ala (LPDLDSSLASIQELLSPQEPPRPPEA) [Peptide 20]
Cleavage by DPP IV (in words) (DPP IV [4]): found to cleave | Cleavage site mediated by DPP IV (DPP IV [4]): H-Leu-Pro-↑-Asp-Leu-Asp-Ser-Ser-Leu-Ala-

H-Gly-Pro-pNA
Hydrolysis of chromogenic substrate by PTP-A (PTP-A [3]): only H-Ala-Phe-Pro-pNA was hydrolyzed

H-Gly-Val-Pro-↓-Lys-Thr-His-Leu-Glu-Leu (GVPKTHLEL) [Peptide 15]
Cleavage site mediated by PTP-A (PTP-A [5]): H-Gly-Val-Pro-↓-Lys-Thr-His-Leu-Glu-Leu

H-Arg-Pro-Pro-↓-Gly-Phe (RPPGF) [Peptide 2]
Cleavage site mediated by PTP-A (PTP-A [5]): H-Arg-Pro-Pro-↓-Gly-Phe

CCN1C(=O)C=CC1=O [N-Ethylmaleimide]
Residual activity of DPP IV, % (DPP IV [1]): 100% | Effect on PTP-A amidolytic activity (in words) (PTP-A [2]): not | Residual activity of PTP-A, % (PTP-A [2]): 98%

Cbz-Gly-Pro-pNA
Hydrolysis of chromogenic substrate by PTP-A (PTP-A [3]): only H-Ala-Phe-Pro-pNA was hydrolyzed

Val-Pro
Residual activity of DPP IV, % (DPP IV [1]): 1% | Residual activity of PTP-A, % (PTP-A [2]): 100%

H-Ala-Arg-Pro-↓-Ala-D-Lys-amide (H-ARPA[dK]-NH2; SMILES C[C@H](N)C(=O)N[C@@H](CCCNC(=N)N)C(=O)N1CCC[C@H]1C(=O)N[C@@H](C)C(=O)N[C@H](CCCCN)C(N)=O) [Peptide 12]
Cleavage site mediated by PTP-A (PTP-A [5]): H-Ala-Arg-Pro-↓-Ala-D-Lys-amide
